# What was measured:
# Format in all cases: cell-based, mouse
# [1] = test system: α7 integrin (LacZ reporter in α7βgal+/− myoblasts); assay: Myoblast α7+/LacZ integrin FDG assay (Burkin assay in myoblasts, 96-well); details: α7+/LacZ myoblasts, 96-well
# [2] = test system: α7 integrin (LacZ reporter in α7+/LacZ myotubes); assay: Myotube α7 integrin FDG assay (Burkin assay in myotubes, 96-well); details: myotubes
# [3] = test system: β-galactosidase in CMV-LacZ C2C12 myotubes; assay: CMV-LacZ secondary screen in C2C12 myotubes (β-Gal stabilizing assay); details: for CMV-LACZ in Myotubes (β-galactosidase activity relative to DMSO): CMV-LacZ C2C12 myotubes, 96-well format
# Procedure, shortened: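 β-Gal level was the read-out, measured in a clonal C2C12 line expressing LacZ from a CMV promoter. Dose-response curves used six concentrations, 0.5 μM up to 40 μM, with duplicate points.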
# [4] = 5 uM, C2C12 CMV-LacZ myotubes, fold relative to DMSO
# [5] = 10 uM, C2C12 CMV-LacZ myotubes, fold relative to DMSO
# [6] = 20 uM, C2C12 CMV-LacZ myotubes, fold relative to DMSO
# [7] = 40 uM, C2C12 CMV-LacZ myotubes, fold relative to DMSO
SMILES,"Burkin Assay in Myoblasts, value relative to DMSO ([1]; 0.5 uM)","Burkin Assay in Myoblasts, value relative to DMSO ([1]; 1 uM)","Burkin Assay in Myoblasts, value relative to DMSO ([1]; 5 uM)","Burkin Assay in Myoblasts, value relative to DMSO ([1]; 10 uM)","Burkin Assay in Myoblasts, value relative to DMSO ([1]; 20 uM)","Burkin Assay in Myoblasts, value relative to DMSO ([1]; 40 uM)",Burkin Assay in Myotubes (signal relative to DMSO) ([2]; 0.5 uM),Burkin Assay in Myotubes (signal relative to DMSO) ([2]; 1 uM),Burkin Assay in Myotubes (signal relative to DMSO) ([2]; 5 uM),Burkin Assay in Myotubes (signal relative to DMSO) ([2]; 10 uM),Burkin Assay in Myotubes (signal relative to DMSO) ([2]; 20 uM),Burkin Assay in Myotubes (signal relative to DMSO) ([2]; 40 uM),CMV-LACZ in Myotubes (β-galactosidase activity relative to DMSO) ([3]; 5 uM),CMV-LACZ in Myotubes (β-galactosidase activity relative to DMSO) ([3]; 10 uM),CMV-LACZ in Myotubes (β-galactosidase activity relative to DMSO) ([3]; 20 uM),CMV-LACZ in Myotubes (β-galactosidase activity relative to DMSO) ([3]; 40 uM),also measured
COc1ccc(Nc2ncnc3ccc(Br)cc23)cc1OC [MLS001196422-01],,,,,,,,,,,,,,,,,"fold induction at 0.5 µM ([1]; Mus musculus, Myoblast, 48 h, 0.5 uM, read-out: Burkin Assay in Myoblasts, signal relative to DMSO): 0.746; fold induction at 1 µM ([1]; Mus musculus, Myoblast, 48 h, 1 uM, read-out: Burkin Assay in Myoblasts, signal relative to DMSO): 0.978; fold induction at 5 µM ([1]; Mus musculus, Myoblast, 48 h, 5 uM, read-out: Burkin Assay in Myoblasts, signal relative to DMSO): 1.23; fold induction at 10 µM ([1]; Mus musculus, Myoblast, 48 h, 10 uM, read-out: Burkin Assay in Myoblasts, signal relative to DMSO): 1.33; fold induction at 20 µM ([1]; Mus musculus, Myoblast, 48 h, 20 uM, read-out: Burkin Assay in Myoblasts, signal relative to DMSO): 1.25; fold induction at 40 µM ([1]; Mus musculus, Myoblast, 48 h, 40 uM, read-out: Burkin Assay in Myoblasts, signal relative to DMSO): 1; fold induction at 0.5 µM ([2]; Mus musculus, Myotube, 0.5 uM, read-out: Burkin Assay in Myotubes, α7 integrin LacZ reporter signal relative to DMSO): 0.976; fold induction at 1 µM ([2]; Mus musculus, Myotube, 1 uM, read-out: Burkin Assay in Myotubes, α7 integrin LacZ reporter signal relative to DMSO): 1.14; fold induction at 5 µM ([2]; Mus musculus, Myotube, 5 uM, read-out: Burkin Assay in Myotubes, α7 integrin LacZ reporter signal relative to DMSO): 1.19; fold induction at 10 µM ([2]; Mus musculus, Myotube, 10 uM, read-out: Burkin Assay in Myotubes, α7 integrin LacZ reporter signal relative to DMSO): 1.32; fold induction at 20 µM ([2]; Mus musculus, Myotube, 20 uM, read-out: Burkin Assay in Myotubes, α7 integrin LacZ reporter signal relative to DMSO): 1.09; fold induction at 40 µM ([2]; Mus musculus, Myotube, 40 uM, read-out: Burkin Assay in Myotubes, α7 integrin LacZ reporter signal relative to DMSO): 0.975; fold induction at 5 µM ([3]; Mus musculus, 5 uM, C2C12 CMV-LacZ myotubes, fold relative to DMSO, read-out: CMV-LACZ in Myotubes, signal relative to DMSO): 0.896; fold induction at 10 µM ([3]; Mus musculus, 10 uM, C2C12 CMV-LacZ myotubes, fold relative to DMSO, read-out: CMV-LACZ in Myotubes, signal relative to DMSO): 0.893; fold induction at 20 µM ([3]; Mus musculus, 20 uM, C2C12 CMV-LacZ myotubes, fold relative to DMSO, read-out: CMV-LACZ in Myotubes, signal relative to DMSO): 0.83; fold induction at 40 µM ([3]; Mus musculus, 40 uM, C2C12 CMV-LacZ myotubes, fold relative to DMSO, read-out: CMV-LACZ in Myotubes, signal relative to DMSO): 0.856"
Cc1ccc(-c2nc(C)sc2CC(=O)OCC(=O)Nc2c(F)cccc2F)cc1 [MLS000388722-01],0.93,1.1187,1.1052,1.1175,0.9101,0.9407,0.9225,0.9369,1.032,1.042,0.8001,0.9404,,,,,"CMV-LACZ in Myotubes, signal relative to DMSO [3, 4]: 0.9569; CMV-LACZ in Myotubes, signal relative to DMSO [3, 5]: 1.067; CMV-LACZ in Myotubes, signal relative to DMSO [3, 6]: 1.085; CMV-LACZ in Myotubes, signal relative to DMSO [3, 7]: 0.8668"
COc1ccccc1OCC(=O)Nc1cc2c(cc1C(=O)O)OCCCO2 [MLS001177045-01],0.8463,1.032,1.0025,1.0259,1.031,0.9569,1.047,0.8145,1.024,1.0851,1.11,0.9678,0.9238,1.11,1.058,1.118,
COc1ccc(S(=O)(=O)N(NC2=NS(=O)(=O)c3ccccc32)C(=O)C(C)C)cc1 [MLS000682883-01],,,,,,,,,,,,,,,,,"Burkin Assay in Myoblasts, signal relative to DMSO ([1]; 0.5 uM): 0.9476; Burkin Assay in Myoblasts, signal relative to DMSO ([1]; 1 uM): 0.9633; Burkin Assay in Myoblasts, signal relative to DMSO ([1]; 5 uM): 1.011; Burkin Assay in Myoblasts, signal relative to DMSO ([1]; 10 uM): 0.9192; Burkin Assay in Myoblasts, signal relative to DMSO ([1]; 20 uM): 0.8269; Burkin Assay in Myoblasts, signal relative to DMSO ([1]; 40 uM): 0.7379; Burkin Assay in Myotubes, α7 integrin LacZ reporter signal relative to DMSO ([2]; 0.5 uM): 0.8116; Burkin Assay in Myotubes, α7 integrin LacZ reporter signal relative to DMSO ([2]; 1 uM): 1.095; Burkin Assay in Myotubes, α7 integrin LacZ reporter signal relative to DMSO ([2]; 5 uM): 0.9936; Burkin Assay in Myotubes, α7 integrin LacZ reporter signal relative to DMSO ([2]; 10 uM): 1.01; Burkin Assay in Myotubes, α7 integrin LacZ reporter signal relative to DMSO ([2]; 20 uM): 1.102; Burkin Assay in Myotubes, α7 integrin LacZ reporter signal relative to DMSO ([2]; 40 uM): 1.094; CMV-LACZ in Myotubes, signal relative to DMSO [3, 4]: 0.9333; CMV-LACZ in Myotubes, signal relative to DMSO [3, 5]: 1.084; CMV-LACZ in Myotubes, signal relative to DMSO [3, 6]: 1.087; CMV-LACZ in Myotubes, signal relative to DMSO [3, 7]: 0.8967"
CC(=O)Nc1ccc(NC(=O)[C@@H](NC(=O)c2cccc(C)c2)C(C)C)cc1 [MLS001176897-01],0.9342,0.9456,0.9058,0.9978,0.9458,0.9475,0.9577,1.073,1.022,1.194,1.145,1.163,1.009,0.797,1.121,1.046,
CCOc1cc(/C=C2\C(=O)ON=C2c2ccccc2)ccc1OC [MLS001196946-01],0.9541,0.9798,0.7989,0.6188,0.1194,0.08385,0.9942,1.113,1.002,0.9469,0.5465,0.2832,0.9817,1.13,2.7886,3.9614,
Cc1ccc(C2Nc3cccc4cccc(c34)N2)s1 [MLS000591198-01],1.006,0.9251,1.037,0.9593,0.7765,0.473,1.017,0.881,1,0.8548,0.9852,0.7014,0.9681,0.9319,0.8338,0.4531,
Cc1ccc(-c2onc3ccc(C(=O)/C=C/N(C)C)cc23)cc1 [MLS001166156-01],0.8005,0.9085,0.7543,0.7601,0.7571,0.3481,1.001,0.8521,1.07,0.7592,0.8218,0.4461,0.8707,0.9198,0.7796,0.5227,
